Structures can show the parent of a compound that is named as a salt.
Experiments:
[1] = Stability of salts and unsalted acid; assay type: physicochemical; settings: salts compared with unsalted acid; in solution
Streptococcus faecalis I = assay: Antibacterial activity, microtitre method (Table 2); assay type: cell-based; settings: heavy inoculum
Description: (§1) The antibacterial activity of the material produced as above was determined by the microtitre method using the overnight inoculum of the test organism at 0.2% concentration. The synergistic activity of the di-sodium salt of MM 17880 in combination with ampicillin and with cephaloridine against Klebsiella aerogenes and Staphylococcus aureus Russell are shown in Table 3.
(§2) Microtitre heavy inoculum

[2] = system: Streptococcus pyogenes CN10; assay: as above; assay type: cell-based; settings: heavy inoculum
Description: as §1, §2

Proteus morganii I580 = assay: as above; assay type: cell-based; settings: heavy inoculum
Description: as §1, §2

Klebsiella aerogenes = assay: Activity by conventional hole in plate method on agar; assay type: cell-based; settings: yellow solid after cellulose chromatography; arbitrary units
Description: 300 ml. of 10% Pluronic L81 in soya-bean oil was added to prevent foaming. The fermentation was harvested after 48 hours and clarified by centrifugation. The clarified brew was arbitarily assigned an activity of 340 units/ml when assayed by the conventional hole in plate method on agar seeded with Klebsiella aerogenes.

[3] = system: gram-positive and gram-negative organisms; assay: Antibacterial activity determined by the microtiter method (general statement); assay type: cell-based; settings: substantially pure di-sodium salt, certain gram-positive and gram-negative organisms
[4] = system: β-lactamase producing strains of Staphylococcus aureus and Klebsiella aerogenes; assay: Synergy with β-lactam antibiotics (general statement); assay type: cell-based; settings: substantially pure di-sodium salt; with ampicillin, amoxycillin and the like; certain bacteria

stability [1]	MIC (Streptococcus faecalis I)	MIC [2]	MIC (Proteus morganii I580)	Structure (SMILES)	activity (Klebsiella aerogenes)	antibacterial activity [3]	synergy with β-lactam antibiotics [4]
tends to decompose in solution	6.2 µg/mL	< 0.04 µg/mL	1.6 µg/mL	CC(=O)NCCSC1=C(C(=O)O)N2C(=O)C(C(C)OS(=O)(=O)O)C2C1 (stereo not shown) [MM 17880]	–	–	–
–	–	–	–	CC(=O)NCCSC1=C(C(=O)O)N2C(=O)C(C(C)OS(=O)(=O)O)C2C1 (stereo not shown) [di-sodium salt of MM 17880]	16,000 units/mg	good level of antibacterial activity	able to synergyse the anti-bacterial activity of β-lactam antibiotics
